Experiment [1] concerns the target human JAK1 (a.a. 837-1142) (Homo sapiens, UniProt P23458). Briefly: In vitro JAK kinase assay (Example D), JAK1. The class given is biochemical. To be noted: 1 mM ATP.
The next experiment has as its target JAK2 (a.a. 828-1132) (Homo sapiens (Human), UniProt O60674). As to the kind of experiment: In vitro JAK kinase assay (Example D), JAK2. The class given is biochemical. To be noted: ratio JAK2/JAK1 of IC50s, 1 mM ATP.

From patent US10125150B2, “Crystalline forms of a PI3K inhibitor” (Incyte Corporation, priority 2015, dated 2018) come the findings set out here.

A value given as a limit tells only on which side of the number the result lay.

JAK2 (a.a. 828-1132), sequence (O60674 828-1132): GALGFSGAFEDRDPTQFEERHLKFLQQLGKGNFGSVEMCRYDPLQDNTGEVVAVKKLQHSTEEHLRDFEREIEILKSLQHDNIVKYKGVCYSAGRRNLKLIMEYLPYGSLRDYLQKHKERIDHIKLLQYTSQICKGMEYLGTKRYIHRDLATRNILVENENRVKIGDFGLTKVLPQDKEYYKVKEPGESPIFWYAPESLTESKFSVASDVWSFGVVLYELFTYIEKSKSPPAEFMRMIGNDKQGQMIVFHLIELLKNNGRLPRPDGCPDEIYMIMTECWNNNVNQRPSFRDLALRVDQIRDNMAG

As a reminder, the IC50 is the concentration that inhibits the measured activity by half. High values mean weaker potency in that assay, low ones greater potency in that assay. For the compound `C[C@H](O)CNCc1cc(OC2CCN([C@H]3C[C@](CC#N)(n4cc(-c5ncnc6[nH]ccc56)cn4)C3)CC2)nc(C(F)(F)F)c1` [Form 25, {trans-3-(4-([4-({[(2S)-2-hydroxypropyl]amino}methyl)-6-(trifluoromethyl)pyridin-2-yl]oxy}piperidin-1-yl)-1-[4-(7H-pyrrolo[2,3-d]pyrimidin-4-yl)-1H-pyrazol-1-yl]cyclobutyl}acetonitrile], in experiment [1], the IC50 was under 10 nM. The JAK2/JAK1 on JAK2 (a.a. 828-1132) is listed as over 10.
With `C[C@@H](O)c1nc2cnc3ccsc3c2n1[C@H]1CC[C@H](CC#N)OC1` [Form 1, ((2R,5S)-5-{2-[(1R)-1-hydroxyethyl]-1H-imidazo[4,5-d]thieno[3,2-b]pyridin-1-yl}tetrahydro-2H-pyran-2-yl)acetonitrile], in experiment [1], the IC50 was under 100 nM. Moreover, the JAK2/JAK1 at JAK2 (a.a. 828-1132) is over 10.
With `N#CC[C@]1(n2cc(-c3ncnc4[nH]ccc34)cn2)C[C@H](N2CCC(Oc3cc(CN4CCC[C@@H]4CO)cc(C(F)(F)F)n3)CC2)C1` [Form 13, {trans-3-(4-{[4-{[(2R)-2-(hydroxymethyl)pyrrolidin-1-yl]methyl}-6-(trifluoromethyl)pyridin-2-yl]oxy}piperidin-1-yl)-1-[4-(7H-pyrrolo[2,3-d]pyrimidin-4-yl)-1H-pyrazol-1-yl]cyclobutyl}acetonitrile], the IC50 in experiment [1] is under 10 nM. Further, the JAK2/JAK1 on JAK2 (a.a. 828-1132) is listed as over 10.
`C[C@H](NC(=O)c1cc(F)c(N2CC(CC#N)(n3cc(-c4ncnc5[nH]ccc45)cn3)C2)cc1F)C(F)(F)F` [Form 16, 4-{3-(cyanomethyl)-3-[4-(7H-pyrrolo[2,3-d]pyrimidin-4-yl)-1H-pyrazol-1-yl]azetidin-1-yl}-2,5-difluoro-N-[(1S)-2,2,2-trifluoro-1-methylethyl]benzamide]: the IC50 in experiment [1] was under 10 nM. Besides, at JAK2 (a.a. 828-1132), the JAK2/JAK1 is listed as over 10.
`N#CCC(CN1CCN(C(=O)c2ccc(C#N)cc2F)CC1)n1cc(-c2ncnc3[nH]ccc23)cn1` (centres unmarked) [Form 5, 4-[(4-{3-cyano-2-[4-(7H-pyrrolo[2,3-d]pyrimidin-4-yl)-1H-pyrazol-1-yl]propyl}piperazin-1-yl)carbonyl]-3-fluorobenzonitrile] returned an IC50 in experiment [1] of under 10 nM. In addition, on JAK2 (a.a. 828-1132), the JAK2/JAK1 is on record as over 10.
`C[C@@H](O)CNCc1cc(OC2CCN([C@H]3C[C@](CC#N)(n4cc(-c5ncnc6[nH]ccc56)cn4)C3)CC2)nc(C(F)(F)F)c1` [Form 24, {trans-3-(4-{[4-({[(2R)-2-hydroxypropyl]amino}methyl)-6-(trifluoromethyl)pyridin-2-yl]oxy}piperidin-1-yl)-1-[4-(7H-pyrrolo[2,3-d]pyrimidin-4-yl)-1H-pyrazol-1-yl]cyclobutyl}acetonitrile]: in experiment [1], the IC50 is under 10 nM. In addition, on JAK2 (a.a. 828-1132), the JAK2/JAK1 is reported as over 10.
In the case of `N#CC[C@]1(n2cc(-c3ncnc4[nH]ccc34)cn2)C[C@H](N2CCN(C(=O)c3ccnc(C(F)(F)F)n3)CC2)C1` [Form 10, [trans-1-[4-(7H-pyrrolo[2,3-d]pyrimidin-4-yl)-1H-pyrazol-1-yl]-3-(4-{[2-(trifluoromethyl)pyrimidin-4-yl]carbonyl}piperazin-1-yl)cyclobutyl]acetonitrile], the IC50 in experiment [1] is under 10 nM. Besides, the JAK2/JAK1 at JAK2 (a.a. 828-1132) is on record as over 10.
Compound `N#CCC(C1CCN(c2nc3cccnc3o2)C1)n1cc(-c2ncnc3[nH]ccc23)cn1` (centres unmarked) [Form 4, 3-(1-[1,3]oxazolo[5,4-b]pyridin-2-ylpyrrolidin-3-yl)-3-[4-(7H-pyrrolo[2,3-d]pyrimidin-4-yl)-1H-pyrazol-1-yl]propanenitrile] gave an IC50 in experiment [1] of under 10 nM. Further, the JAK2/JAK1 on JAK2 (a.a. 828-1132) was over 10.
In experiment [1], `N#CC[C@]1(n2cc(-c3ncnc4[nH]ccc34)cn2)C[C@H](N2CCC(Oc3cc(CN4CC(O)C4)cc(C(F)(F)F)n3)CC2)C1` [Form 11, {trans-3-(4-{[4-[(3-hydroxyazetidin-1-yl)methyl]-6-(trifluoromethyl)pyridin-2-yl]oxy}piperidin-1-yl)-1-[4-(7H-pyrrolo[2,3-d]pyrimidin-4-yl)-1H-pyrazol-1-yl]cyclobutyl}acetonitrile] came in with an IC50 of under 10 nM. Moreover, the JAK2/JAK1 on JAK2 (a.a. 828-1132) is over 10.
Compound `CC(C)(O)c1cc(O[C@H]2CC[C@@H](N3CC(CC#N)(n4cc(-c5ncnc6[nH]ccc56)cn4)C3)CC2)nc(C(F)(F)F)c1` [Form 20, {1-(cis-4-{[4-(1-hydroxy-1-methylethyl)-6-(trifluoromethyl)pyridin-2-yl]oxy}cyclohexyl)-3-[4-(7H-pyrrolo[2,3-d]pyrimidin-4-yl)-1H-pyrazol-1-yl]azetidin-3-yl}acetonitrile] yielded an IC50 in experiment [1] of under 10 nM. The JAK2/JAK1 at JAK2 (a.a. 828-1132) is given as over 10.
Consider `N#CCC1(n2cc(-c3ncnc4[nH]ccc34)cn2)CN(C2CCN(C(=O)c3ccnc(C(F)(F)F)c3F)CC2)C1` [Form 7, {1-{1-[3-Fluoro-2-(trifluoromethyl)isonicotinoyl]piperidin-4-yl}-3-[4-(7H-pyrrolo[2,3-d]pyrimidin-4-yl)-1H-pyrazol-1-yl]azetidin-3-yl}acetonitrile], for which the IC50 in experiment [1] is under 10 nM. The JAK2/JAK1 at JAK2 (a.a. 828-1132) is given as over 10.
For `N#CCC(C1CCN(c2cccc(Cl)n2)C1)n1cc(-c2ncnc3[nH]ccc23)cn1` (single isomer, unassigned) [Form 3, 3-[1-(6-chloropyridin-2-yl)pyrrolidin-3-yl]-3-[4-(7H-pyrrolo[2,3-d]pyrimidin-4-yl)-1H-pyrazol-1-yl]propanenitrile], in experiment [1], the 50% inhibitory concentration (IC50) was under 10 nM. For the same compound, the JAK2/JAK1 at JAK2 (a.a. 828-1132) is on record as over 10.
`N#CCC1(n2cc(-c3ncnc4[nH]ccc34)cn2)CN([C@H]2CC[C@@H](Oc3cc(CN4CC[C@H](O)C4)cc(C(F)(F)F)n3)CC2)C1` [Form 22, {1-(cis-4-{[4-{[(3S)-3-hydroxypyrrolidin-1-yl]methyl}-6-(trifluoromethyl)pyridin-2-yl]oxy}cyclohexyl)-3-[4-(7H-pyrrolo[2,3-d]pyrimidin-4-yl)-1H-pyrazol-1-yl]azetidin-3-yl}acetonitrile]: the IC50 in experiment [1] is under 10 nM. Besides, the JAK2/JAK1 at JAK2 (a.a. 828-1132) is listed as over 10.
Take `N#CCC1(n2cc(-c3ncnc4[nH]ccc34)cn2)CN([C@H]2CC[C@@H](Oc3cc(CCO)nc(C(F)(F)F)n3)CC2)C1` [Form 18, {1-(cis-4-{[6-(2-hydroxyethyl)-2-(trifluoromethyl)pyrimidin-4-yl]oxy}cyclohexyl)-3-[4-(7H-pyrrolo[2,3-d]pyrimidin-4-yl)-1H-pyrazol-1-yl]azetidin-3-yl}acetonitrile]: the half-inhibitory concentration (IC50) in experiment [1] is under 10 nM. Also, at JAK2 (a.a. 828-1132), the JAK2/JAK1 was over 10.
`N#CCC1(n2cc(-c3ncnc4[nH]ccc34)cn2)CN([C@H]2CC[C@@H](Oc3cc(CN4CC[C@@H](O)C4)cc(C(F)(F)F)n3)CC2)C1` [Form 21, {1-(cis-4-{[4-{[(3R)-3-hydroxypyrrolidin-1-yl]methyl}-6-(trifluoromethyl)pyridin-2-yl]oxy}cyclohexyl)-3-[4-(7H-pyrrolo[2,3-d]pyrimidin-4-yl)-1H-pyrazol-1-yl]azetidin-3-yl}acetonitrile]: the IC50 in experiment [1] was under 10 nM. In addition, on JAK2 (a.a. 828-1132), the JAK2/JAK1 is reported as over 10.
As to `N#CCC(CN1CCN(C(=O)c2ccc(C#N)cc2F)CC1)n1ccc(-c2ncnc3[nH]ccc23)c1` (centres unmarked) [Form 6, 4-[(4-{3-cyano-2-[3-(7H-pyrrolo[2,3-d]pyrimidin-4-yl)-1H-pyrrol-1-yl]propyl}piperazin-1-yl)carbonyl]-3-fluorobenzonitrile], the IC50 in experiment [1] is under 10 nM. At JAK2 (a.a. 828-1132), the JAK2/JAK1 is recorded as over 10.
In experiment [1], `N#CC[C@]1(n2cc(-c3ncnc4[nH]ccc34)cn2)C[C@H](N2CCC(Oc3cc(CN4CCC[C@H]4CO)cc(C(F)(F)F)n3)CC2)C1` [Form 12, {trans-3-(4-{[4-{[(2S)-2-(hydroxymethyl)pyrrolidin-1-yl]methyl}-6-(trifluoromethyl)pyridin-2-yl]oxy}piperidin-1-yl)-1-[4-(7H-pyrrolo[2,3-d]pyrimidin-4-yl)-1H-pyrazol-1-yl]cyclobutyl}acetonitrile] returned a half-inhibitory concentration (IC50) of under 10 nM. Further, the JAK2/JAK1 on JAK2 (a.a. 828-1132) is recorded as over 10.
In experiment [1], `N#CCC1(n2cc(-c3ncnc4[nH]ccc34)cn2)CN(C2CCN(C(=O)c3ccnc(C(F)(F)F)n3)CC2)C1` [Form 9, [3-[4-(7H-pyrrolo[2,3-d]pyrimidin-4-yl)-1H-pyrazol-1-yl]-1-(1-{[2-(trifluoromethyl)pyrimidin-4-yl]carbonyl}piperidin-4-yl)azetidin-3-yl]acetonitrile] had an IC50 of under 10 nM. Further, the JAK2/JAK1 at JAK2 (a.a. 828-1132) was over 10.
As for `C[C@@H](CO)NCc1cc(OC2CCN([C@H]3C[C@](CC#N)(n4cc(-c5ncnc6[nH]ccc56)cn4)C3)CC2)nc(C(F)(F)F)c1` [Form 23, {trans-3-(4-{[4-({[(1S)-2-hydroxy-1-methylethyl]amino}methyl)-6-(trifluoromethyl)pyridin-2-yl]oxy}piperidin-1-yl)-1-[4-(7H-pyrrolo[2,3-d]pyrimidin-4-yl)-1H-pyrazol-1-yl]cyclobutyl}acetonitrile], in experiment [1], the half-inhibitory concentration (IC50) is under 10 nM. Moreover, the JAK2/JAK1 on JAK2 (a.a. 828-1132) was over 10.
In the same order, the values of `CCNCc1cc(O[C@H]2CC[C@@H](N3CC(CC#N)(n4cc(-c5ncnc6[nH]ccc56)cn4)C3)CC2)nc(C(F)(F)F)c1` [Form 19, {1-(cis-4-{[4-[(ethylamino)methyl]-6-(trifluoromethyl)pyridin-2-yl]oxy}cyclohexyl)-3-[4-(7H-pyrrolo[2,3-d]pyrimidin-4-yl)-1H-pyrazol-1-yl]azetidin-3-yl}acetonitrile] are under 10 nM and over 10.
For `N#CCC1(n2cc(-c3ncnc4[nH]ccc34)cn2)CN(C2CCN(C(=O)Nc3ccc(F)cc3C(F)(F)F)CC2)C1` [Form 8, 4-{3-(Cyanomethyl)-3-[4-(7H-pyrrolo[2,3-d]pyrimidin-4-yl)-1H-pyrazol-1-yl]azetidin-1-yl}-N-[4-fluoro-2-(trifluoromethyl)phenyl]piperidine-1-carboxamide] the same measures were under 10 nM and over 10.
Compound `N#CC[C@]1(n2cc(-c3ncnc4[nH]ccc34)cn2)C[C@H](N2CCC(Oc3cc(CCO)cc(C(F)(F)F)n3)CC2)C1` [Form 26, {trans-3-(4-{[4-(2-hydroxyethyl)-6-(trifluoromethyl)pyridin-2-yl]oxy}piperidin-1-yl)-1-[4-(7H-pyrrolo[2,3-d]pyrimidin-4-yl)-1H-pyrazol-1-yl]cyclobutyl}acetonitrile] yielded an IC50 in experiment [1] of under 10 nM. In addition, the JAK2/JAK1 on JAK2 (a.a. 828-1132) is recorded as over 10.
